In data set [1] the test system is IL-36-triggered psoriasis-like dermatitis. The data set can be described thus: IL-36α-mediated psoriasis-like dermatitis mouse model, topical treatment of ears. In kind it is in vivo, C57BL/6 mice. How it is done:
Western blot analysis was performed as described before. The following antibodies were used and purchased from Cell Signaling: anti-IκBζ (9244), anti-phospho-STAT3 at […] (9145), anti-phospho-STAT3 at […] (9134), anti-STAT3 (12640), anti-p65 (8242), anti-EZH2 (5246), anti-pRB (phospho-RB at […]/811; 8516), anti-FoxM1 (5436), anti-H3 (4499), anti-CDK4 (12790), anti-CDK6 (13331), anti-CDK9 (2316), anti-cyclin D1 (2978), anti-cyclin D2 (3741), anti-cyclin D3 (2936), anti-cJUN (9165), anti-H3K27me3 (9733), anti-GAPDH (2118), anti-H3 (9715) and anti-β-actin (3700). Anti-β-Gal (sc377257) and anti-GFP (sc9996) were obtained from Santa Cruz Biotechnology. Anti-pEZH2 at […] (61242) anti-pEZH2 at […] (12820) were purchased from Active Motif and anti-pan-methyl-lysine antibody was purchased from Enzo ([…]). For detection of mouse IκB, a self-made antibody raised against peptides […] NO:3) and […] NO:4) was applied. Gene expression analyses were performed as described. Relative gene expression was analyzed using self-designed primers ordered at Metabion (not shown). Relative mRNA levels were calculated by normalization to the human reference gene RPL37A or the mouse reference gene Actin using the 2-ΔΔCt method. Experiments were conducted in accordance with the German law guide-lines of animal care. Ears of female C57BL/6 mice (8-12 weeks old) were topically treated for 6 consecutive days with 5 mg Aldara cream (containing 5% imiquimod, 3M Pharmaceutical) and 0.02 mg of abemaciclib (in 10 μL ethanol), 0.05 mg CPI-169 (in 10 μL ethanol) or vehicle control. At day 7, mice were sacrificed and analysed. For IL-36α-mediated psoriasis induction, ears of male C57BL/6 mice (8-12 weeks old) were treated by intradermal injections using 1 μg murine IL-36α (aa 8-160, R&D) or PBS control for 5 consecutive days. For application of the vehicle control, abemaciclib (0.02 mg) or CPI-169 (0.05 mg), substances were mixed with Miglyol 812 (Carl Roth) in a ratio of 1:4. Inhibitors were topically applicated 6 h before intradermal injections of IL-36α or PBS were applied. Mice were sacrificed and analysed at day 6. […]

Data set [2] deals with IMQ-induced, psoriasis-like skin inflammation. In kind it is in vivo, C57BL/6 mice. The note with it: for penetration of the skin: mouse, in vivo. The procedure:
Western blot analysis was performed as described before. The following antibodies were used and purchased from Cell Signaling: anti-IκBζ (9244), anti-phospho-STAT3 at Tyr705 (9145), anti-phospho-STAT3 at Ser727 (9134), anti-STAT3 (12640), anti-p65 (8242), anti-EZH2 (5246), anti-pRB (phospho-RB at Ser807/811; 8516), anti-FoxM1 (5436), anti-H3 (4499), anti-CDK4 (12790), anti-CDK6 (13331), anti-CDK9 (2316), anti-cyclin D1 (2978), anti-cyclin D2 (3741), anti-cyclin D3 (2936), anti-cJUN (9165), anti-H3K27me3 (9733), anti-GAPDH (2118), anti-H3 (9715) and anti-β-actin (3700). Anti-β-Gal (sc377257) and anti-GFP (sc9996) were obtained from Santa Cruz Biotechnology. Anti-pEZH2 at T345 (61242) anti-pEZH2 at T487 (12820) were purchased from Active Motif and anti-pan-methyl-lysine antibody was purchased from Enzo (ADI-KAP-TF121-E). For detection of mouse IκB, a self-made antibody raised against peptides […] (SEQ ID NO:3) and […] (SEQ ID NO:4) was applied.
Gene expression analyses were performed as described. Relative gene expression was analyzed using self-designed primers ordered at Metabion (not shown). Relative mRNA levels were calculated by normalization to the human reference gene RPL37A or the mouse reference gene Actin using the 2-ΔΔCt method.
Experiments were conducted in accordance with the German law guide-lines of animal care. Ears of female C57BL/6 mice (8-12 weeks old) were topically treated for 6 consecutive days with 5 mg Aldara cream (containing 5% imiquimod, 3M Pharmaceutical) and 0.02 mg of abemaciclib (in 10 μL ethanol), 0.05 mg CPI-169 (in 10 μL ethanol) or vehicle control. At day 7, mice were sacrificed and analysed. For IL-36α-mediated psoriasis induction, ears of male C57BL/6 mice (8-12 weeks old) were treated by intradermal injections using 1 μg murine IL-36α (aa 8-160, R&D) or PBS control for 5 consecutive days. For application of the vehicle control, abemaciclib (0.02 mg) or CPI-169 (0.05 mg), substances were mixed with Miglyol 812 (Carl Roth) in a ratio of 1:4. Inhibitors were topically applicated 6 h before intradermal injections of IL-36α or PBS were applied. Mice were sacrificed and analysed at day 6.
Sample preparation was performed as described. The following anti-mouse antibodies from BioLegend were used: anti-CD45 FITC (103107), anti-CD11b PacificBlue (101223), anti-Ly6G PE (127607), anti-F4/80 APC (123115), anti-CD11c Pacific Blue (117322), anti-MHC-II APC (107613), anti-CD172a PE (144011) and anti-Silec-H PE (129605). Anti-PDCA-1 APC (17-2092-80) and anti-αβTCR PE (HM3628) were purchased from Invitrogen, and anti-γδ-TCR APC (17-5711-82) from Sigma. Data was acquired on a LSRII flow cytometer (Becton Dickson).
Ear sections from mice were fixed in 10% formalin (Carl Roth) and subsequently embedded in paraffin. 5-μm sections were prepared and incubated with the following antibodies from Cell Signaling: pSTAT3 (9145), pRB (8516) and H3K27me3 (9733). For staining of human skin samples, EZH2 antibody (Cell Signaling, 5246) was used. Antigen retrieval was performed in 1 mM EDTA pH 8.0 for pSTAT3, and 10 mM citrate buffer pH 6.0+0.5% Triton X-100 for EZH2, H3K27me3 and pRB. After incubation with peroxidase-coupled secondary antibodies, sections were stained with DAB substrate.

Data set [3] has as its system TH1 cytokines and tumor-infiltrating T cells. The note with it: experimental cancer model, Deng et al.; cited from earlier work.
The mark [4] stands for this setting: flow cytometry of IMQ-treated mouse ears, day 7.

As for `CCS(=O)(=O)N1CCC([C@@H](C)n2c(C)c(C(=O)NCc3c(OC)cc(C)[nH]c3=O)c3ccccc32)CC1` [CPI-169], the “IκBζ target gene expression and key cytokine expression (Il17a, Il23a)” value in data set [1] (IL-36α-treated skin, FIG. 12g) was “effectively blocked”. The “keratinocyte hyperproliferation and immune cell infiltration” value in data set [1] (intradermal IL-36α 5 days, topical inhibitor, day 6) is reported as “effectively blocked”. The “IL-36-mediated expression of IκBζ, phosphorylation of EZH2 at T345 and activation of STAT3 (pSTAT3 Y705)” value in data set [1] (skin of treated mouse ears, day 6) is listed as “suppressed”. Moreover, the “IκBζ expression in the skin, phosphorylation of EZH2 at T345 and of STAT3 at Y705” value in data set [2] (IMQ-treated mouse skin, day 7) is “completely abrogated”. The “expression of IκBζ target genes (Cxcl2, Cxcl5) and DC- and T-cell-derived cytokines (Il17a, Il23a)” value in data set [2] (IMQ-treated skin, day 7) is given as “significantly downregulated”. Further, the “H3K27me3 expression in the epidermis (EZH2 inhibition)” value in data set [2] (ear skin sections of treated mice, FIG. 10c) is listed as “loss”. Further, in data set [2] (setting [4]), the “immune cell infiltration (neutrophils, macrophages and T cells)” value is on record as “fully abrogated”; the “number of infiltrating plasmacytoid (pDC) and myeloid dendritic cells (mDC)” value is reported as “significantly suppressed”. In addition, the “penetration of the skin” value in data set [2] is reported as “effectively penetrated the skin”. The “IMQ-induced, psoriasis-like skin inflammation (ear thickening, keratinocyte hyperproliferation, immune cell infiltration)” value in data set [2] (topical, daily 6 days, abemaciclib 0.02 mg, CPI-169 0.05 mg per ear) is “completely suppressed”.
For `CCN1CCN(Cc2ccc(Nc3ncc(F)c(-c4cc(F)c5nc(C)n(C(C)C)c5c4)n3)nc2)CC1` [abemaciclib], in data set [2], the “penetration of the skin” value is listed as “effectively penetrated the skin”.
Consider `CN1CCN(c2ccc(Nc3ncc4cc5n(c4n3)C3(CCCCC3)CNC5=O)nc2)CC1` [trilaciclib], for which, in data set [3], the “levels of TH1 cytokines and tumor-infiltrating T cells” value was “increased”.
